These results are taken from patent US11826352B2, “Edaravone suspension for oral administration” (MITSUBISHI TANABE PHARMA CORPORATION, priority 2018, dated 2023).

The nature of series [1]: Transmission scattering light intensity test. Particulars: 40 mL 0.1% (w/v) additive solution + 840 mg edaravone particles; for Dispersion State of Edaravone: stirred 30 minutes or more; for Transmission Scattering light Intensity ΔT %: TURBISCAN Tower, 25° C., height 39-40 mm, after 10 minutes. The series is classed as physicochemical. The protocol: Further, here, the transmission scattering light intensity means a value obtained after 10 minutes after starting a measurement of a transmission scattering light intensity, the measurement being performed by filling 20 mL of the above liquid in a cylindrical sample bottle (inner diameter: 25 mm×outer diameter: 27.5 mm×height: 72 mm) and by measuring the transmission scattering light intensity at a height of 39-40 mm of the sample bottle using a TURBISCAN Tower (manufactured Formulaction) (25° C.).
0.1% (w/v) aqueous solutions of drug product additives described in the following table that are substances having a function capable of dispersing solid particles in a liquid were prepared at a room temperature.
40 mL of each of the aqueous solutions of the additives was added to 840 mg of edaravone particles (edaravone powder, D50: 37 μm, D90: 143 μm) and the mixture was stirred using a stirrer for 30 minutes or more, and a dispersed state of the edaravone particles was confirmed.
Further, 20 mL of the dispersion liquid obtained above was filled into a sample bottle (inner diameter: 25 mm×outer diameter: 27.5 mm×height: 72 mm), and measurement of a transmission scattering light intensity ΔT % at a height of 39-40 mm of the sample bottle was started using a TURBISCAN Tower (manufactured by Formulaction) (with a temperature set to 25° C.), and a value obtained after 10 minutes after the start of the measurement was defined as the transmission scattering light intensity ΔT % for each additive. The transmission scattering light intensities ΔT % of the additives and the dispersion state of the edaravone particles in the additive solutions are shown in the following table.

The nature of another series: Contact angle test. The class given is physicochemical. The note with it: edaravone saturated aqueous solution with 0.1% (w/v) additive on edaravone tablet; 1 μL, after 3.1 seconds. The protocol: Here, “80 degrees or less” means a range of 0-80 degrees. […] Here, the edaravone tablet refers to an edaravone tablet obtained by compression-molding 120 mg of edaravone (D50: 37 D90: 143 μm) in a flat punch having a diameter of 8 mm at a tableting pressure of 800 kg, and measurement of the contact angle refers to a case where the contact angle is measured using a contact angle measuring device (CAX-150 manufactured by Kyowa Interface Science) under the following conditions. • Syringe used: glass, 1 mL • Needle: 23 gauge • Liquid volume: 1 μL • Measurement time: after 3.1 seconds
120 mg of an edaravone drug substance (D50: 37 μm, D90: 143 μm) was compression-molded using a single-punch tableting machine (Compaction Analyzer) (punch: flat punch having a diameter of 8 mm; tableting pressure: 800 kgf), and an edaravone tablet for contact angle measurement was obtained.
Edaravone saturated aqueous solutions in which drug product additives described in the following table that are substances having a function capable of dispersing solid particles in a liquid were dissolved 0.1% (w/v) therein were prepared at a room temperature, and contact angles with respect to the edaravone tablet prepared above were measured using a contact angle measurement device (Kyowa Interface Science, Inc., CAX-150). […]

Polysorbate 80: in series [1], the “Dispersion State of Edaravone” value was “dispersed” and the “Transmission Scattering light Intensity ΔT %” value is reported as 6.151%. Also, in the series “Contact angle test”, the “Contact Angle” value amounted to 53.1 degrees.

Turning to `OC[C@@H](O)[C@@H](O)[C@H](O)[C@@H](O)CO` [D-sorbitol], in series [1], the “Dispersion State of Edaravone” value is “not dispersed” and the “Transmission Scattering light Intensity ΔT %” value came out at 0.000%. In addition, the “Contact Angle” value in the series “Contact angle test” was determined as 83.3 degrees.
